This passage reports IC50 and EC50 results from patent US11339193B2, “CDP protein secretion inhibitors” (KEZAR LIFE SCIENCES, priority 2018, dated 2022).

Common to all, as to type: cell-based
Test [1] deals with TNFα-FL/Gaussia Luciferase. Briefly: Dox induced TNFα-FL-Gluc assay. Conditions: Flp-In 293 T-REx cells, doxycycline, 24 hours; read-out: TNFa FL Gluc IC50. The text has this:
Dox Induced TNFα-FL-Gluc Assay
(§1) Flp-In 293 T-REx™ cells were transfected with pcDNA™5/FRT/TO plasmid inserted with cDNA encoding Gaussia Luciferase fused to the 3′ end of cDNA encoding full length TNFα (amino acids 1-233). Transfected cells were selected for resistance to the selectable markers Hygromycin and Blasticidin to create a stable cell line that contained the TNFα-FL/Gaussia Luciferase cDNA insert whose expression was regulated under the T-REx™ system. The day before assay, cells were trypsinized and plated in 384-well tissue culture plates. The next day, compound dilutions in DMSO/media containing doxycycline were added to the wells and incubated at 37° C., 5% CO2.

Test [2] relates to NCI-H929 multiple myeloma cell line. In words: H929 assay (cell viability, Celltiter-Glo). Conditions: Homo sapiens, NCI-H929; 48 hours, cell viability; read-out: H929 EC50. On the procedure: The human multiple myeloma cell line NCI-H929 was cultured in Advanced RPMI 1640 media (Gibco@) supplemented with 6% fetal bovine serum, 2 mM Glutamine, and 1× Penicillin/Streptomycin. On the day of assay, cells were resuspended in RPMI 1640 media supplemented with 10% fetal bovine serum, 2 mM Glutamine, and 1× Penicillin/Streptmycin and plated in 384-well tissue culture plates and treated with compound dilutions in DMSO/media. Plates were incubated at 37° C., 5% CO2 for 48 hours. After 48 hours, Celltiter-Glo@ (Promega) was added to each well and luciferase signal was quantified using Tecan Infinite M1000 Pro for cell viability determination.
On the technique in general: Cellular ATP, detected with luciferase, serves as a proxy for viable cell number.

Test [3] has as its system PD1-ss+10aa/Gaussia Luciferase. In words: Dox induced PD1-ss-Gluc assay. Particulars: Flp-In 293 T-REx cells, doxycycline, 24 hours; read-out: PD1ss Gluc IC50.
From the text: Dox Induced PD1-ss-Gluc Assay
as §1, with “PD1 signal sequence plus 10 amino” for “full length TNFα (amino”, “(N-[…]-C) (SEQ ID NO:3).” for “1-233).”, “PD1-ss+10aa/Gaussia” for “TNFα-FL/Gaussia”

Each structure is given as a SMILES string. Numbered stars: 1 amine (or outer) side, 2 acyl side, 3 side chain; on linkers, the order of the positions; unused ones are H or OH. Square brackets hold non-standard residues; d marks the D form. Peptide text beside a SMILES is read from it. Butanoyl(2R-oxy,4-CN) = N#CCC[C@@H](O)C(=O)O; X22 = CCCC[C@@H](C)C[C@H](N[*:1])C(=O)[*:2]; Abu(4,4,4-F3) = N[C@@H](CC(F)(F)F)C(=O)O; X12 = O=C([C@H](CC1=CCCC1)N[*:1])[*:2]; Ala(cPent) = N[C@@H](CC1CCCC1)C(=O)O; NMeCha = CN[C@@H](CC1CCCCC1)C(=O)O; NMeF = CN[C@@H](Cc1ccccc1)C(=O)O; tBuAla = CC(C)(C)C[C@H](N)C(=O)O; NMeL = CN[C@@H](CC(C)C)C(=O)O; hLeu = CC(C)CC[C@H](N)C(=O)O; NMeA = CN[C@@H](C)C(=O)O; Nva = CCC[C@H](N)C(=O)O; dLac = C[C@@H](O)C(=O)O; Abu = CC[C@H](N)C(=O)O

As a reminder, the IC50 is the midpoint of a concentration-inhibition curve. By EC50 is commonly meant the concentration at which the effect is half-maximal. Take `CCCC[C@@H](C)C[C@@H]1NC(=O)[C@H](CC2CCCCC2)N(C)C(=O)[C@H](CC(C)C)NC(=O)[C@H](CC(C)C)N(C)C(=O)[C@H](CCC(C)C)NC(=O)[C@@H](CCC#N)OC(=O)[C@H](C)N(C)C1=O` [C-60] (cyclo(L[NMeCha][X22][NMeA][Butanoyl(2R-oxy,4-CN)][hLeu][NMeL])): the results for the IC50 in test [1] and in test [3] were 1120 nM and 335 nM, respectively. For the same molecule, the EC50 in test [2] was 4730 nM.
Take `CCCC[C@@H](C)C[C@@H]1NC(=O)[C@@H](CCC#N)OC(=O)[C@H](C)N(C)C(=O)[C@H](CC)NC(=O)[C@H](Cc2ccccc2)N(C)C(=O)[C@H](CC(C)C)NC(=O)[C@H](CC(C)C)N(C)C1=O` [C-25] (HELM PEPTIDE1{[Abu].[meA].[N#CCC[C@@H](O[*:1])C(=O)[*:2]].[CCCC[C@@H](C)C[C@H](N[*:1])C(=O)[*:2]].[meL].L.[meF]}$PEPTIDE1,PEPTIDE1,1:R1-7:R2$$$V2.0): the IC50 in test [1] turned out to be 376 nM; in test [3], 297 nM. For the same molecule, in test [2], the EC50 amounted to 2360 nM.
For `CCCC[C@@H](C)C[C@@H]1NC(=O)[C@H](Cc2ccccc2)N(C)C(=O)[C@H](CCC)NC(=O)[C@H](CC(C)C)N(C)C(=O)[C@H](C[C@H](C)CCCC)NC(=O)[C@@H](C)OC(=O)[C@H](C)N(C)C1=O` [C-04] (cyclo([NMeA][dLac][X22][NMeL][Nva][NMeF][X22])), in that order: 104 nM, 86 nM and 1260 nM.
With `CCCC[C@@H](C)C[C@@H]1NC(=O)[C@H](CC2=CCCC2)N(C)C(=O)[C@H](CC(C)C)NC(=O)[C@H](CC(C)C)N(C)C(=O)[C@H](C[C@H](C)CCCC)NC(=O)[C@@H](CCC#N)OC(=O)[C@H](C)N(C)C1=O` [C-23], the IC50 in test [1] was 88 nM; in test [3], 66 nM. For the same molecule, in test [2], the EC50 came to 953 nM.
Consider `CCCC[C@@H](C)C[C@@H]1NC(=O)[C@H](CC2CCCCC2)N(C)C(=O)[C@H](CC(C)C)NC(=O)[C@H](CC(C)C)N(C)C(=O)[C@H](CC2CCCC2)NC(=O)[C@@H](CCC#N)OC(=O)[C@H](C)N(C)C1=O` [C-47] (cyclo([Ala(cPent)][NMeL]L[NMeCha][X22][NMeA][Butanoyl(2R-oxy,4-CN)])), for which the 50% inhibitory concentration (IC50) in test [1] stood at 1130 nM; in test [3] it was 367 nM. Besides, the EC50 in test [2] worked out at 6960 nM.
For `CCCC[C@@H](C)C[C@@H]1NC(=O)[C@H](Cc2ccccc2)N(C)C(=O)[C@H](CC(C)C)NC(=O)[C@H](CC(C)C)N(C)C(=O)[C@H](C(C)C)NC(=O)[C@@H](C)OC(=O)[C@H](C)N(C)C1=O` [C-07] (HELM PEPTIDE1{L.[meF].[CCCC[C@@H](C)C[C@H](N[*:1])C(=O)[*:2]].[meA].[C[C@@H](O[*:1])C(=O)[*:2]].V.[meL]}$PEPTIDE1,PEPTIDE1,1:R1-7:R2$$$V2.0), in that order: 1260 nM, 656 nM and 5550 nM.
Take `CCCC[C@@H](C)C[C@@H]1NC(=O)[C@H](CC2CCCCC2)N(C)C(=O)[C@H](CC(C)C)NC(=O)[C@H](CC(C)C)N(C)C(=O)[C@H](CC2=CCCC2)NC(=O)[C@@H](CCC#N)OC(=O)[C@H](C)N(C)C1=O` [C-55] (cyclo(L[NMeCha][X22][NMeA][Butanoyl(2R-oxy,4-CN)][X12][NMeL])): the IC50 in test [1] stood at 464 nM; in test [3], 119 nM. In addition, the EC50 in test [2] came to 1870 nM.
The corresponding values for `CCCC[C@@H](C)C[C@@H]1NC(=O)[C@H](Cc2ccccc2)N(C)C(=O)[C@H](CC(C)C)NC(=O)[C@H](CC(C)C)N(C)C(=O)[C@H](CC(F)(F)F)NC(=O)[C@@H](C)OC(=O)[C@H](C)N(C)C1=O` [C-03] (cyclo(L[NMeF][X22][NMeA][dLac][Abu(4,4,4-F3)][NMeL])) are 525 nM, 385 nM and 5070 nM.
Take `CCCC[C@@H](C)C[C@@H]1NC(=O)[C@H](Cc2ccccc2)N(C)C(=O)[C@H](CC)NC(=O)[C@H](CC(C)C)N(C)C(=O)[C@H](C[C@H](C)CCCC)NC(=O)[C@@H](C)OC(=O)[C@H](C)N(C)C1=O` [C-05] (cyclo([Abu][NMeF][X22][NMeA][dLac][X22][NMeL])): the IC50 in test [1] stood at 115 nM; in test [3], 75 nM. In addition, the EC50 in test [2] turned out to be 1190 nM.
The corresponding values for `CCCC[C@@H](C)C[C@@H]1NC(=O)[C@@H](C)OC(=O)[C@H](C)N(C)C(=O)[C@H](C(C)C)NC(=O)[C@H](Cc2ccccc2)N(C)C(=O)[C@H](CC(C)C)NC(=O)[C@H](CC(C)C)N(C)C1=O` [C-02] (HELM PEPTIDE1{L.[meF].V.[meA].[C[C@@H](O[*:1])C(=O)[*:2]].[CCCC[C@@H](C)C[C@H](N[*:1])C(=O)[*:2]].[meL]}$PEPTIDE1,PEPTIDE1,1:R1-7:R2$$$V2.0) are 779 nM, 460 nM and 4060 nM.
Consider `CCCC[C@@H](C)C[C@@H]1NC(=O)[C@H](CC2CCCCC2)N(C)C(=O)[C@H](CC(C)C)NC(=O)[C@H](CC(C)C)N(C)C(=O)[C@H]([C@@H](C)CC)NC(=O)[C@@H](CCC#N)OC(=O)[C@H](C)N(C)C1=O` [C-61] (cyclo(I[NMeL]L[NMeCha][X22][NMeA][Butanoyl(2R-oxy,4-CN)])), for which the IC50 in test [1] stood at 1890 nM; in test [3], 392 nM. Besides, the EC50 in test [2] came out at 4560 nM.
On to `CCCC[C@@H](C)C[C@@H]1NC(=O)[C@H](Cc2ccccc2)N(C)C(=O)[C@H](CC(C)C)NC(=O)[C@H](CC(C)C)N(C)C(=O)[C@H](CC)NC(=O)[C@@H](C)OC(=O)[C@H](C)N(C)C1=O` [C-06] (HELM PEPTIDE1{[Abu].[meL].L.[meF].[CCCC[C@@H](C)C[C@H](N[*:1])C(=O)[*:2]].[meA].[C[C@@H](O[*:1])C(=O)[*:2]]}$PEPTIDE1,PEPTIDE1,1:R1-7:R2$$$V2.0), for which, in test [2], the EC50 was found to be 6710 nM.
Turning to `CCCC[C@@H](C)C[C@@H]1NC(=O)[C@H](CC2CCCCC2)N(C)C(=O)[C@H](CC(C)(C)C)NC(=O)[C@H](CC(C)C)N(C)C(=O)[C@H](CC(C)C)NC(=O)[C@@H](CCC#N)OC(=O)[C@H](C)N(C)C1=O` [C-63] (cyclo(L[NMeL][tBuAla][NMeCha][X22][NMeA][Butanoyl(2R-oxy,4-CN)])), the IC50 in test [3] turned out to be 3050 nM.
Turning to `CCCC[C@@H](C)C[C@@H]1NC(=O)[C@H](CC2CCCCC2)N(C)C(=O)[C@H](CC(C)C)NC(=O)[C@H](CC(C)C)N(C)C(=O)[C@H](CC(C)(C)C)NC(=O)C(CCC#N)OC(=O)[C@H](C)N(C)C1=O` (stereo in doubt) [C-52], the IC50 in test [1] was found to be 5730 nM; in test [3] it was 751 nM.
As to `CCCC[C@@H](C)C[C@@H]1NC(=O)[C@H](CC2CCCCC2)N(C)C(=O)[C@H](CC2CCCC2)NC(=O)[C@H](CC(C)C)N(C)C(=O)[C@H](CC(C)C)NC(=O)[C@@H](CCC#N)OC(=O)[C@H](C)N(C)C1=O` [C-54] (cyclo([Ala(cPent)][NMeCha][X22][NMeA][Butanoyl(2R-oxy,4-CN)]L[NMeL])), the IC50 in test [3] was 2140 nM.
Take `CC(C)C[C@@H]1NC(=O)[C@H](Cc2nc(C(C)(C)C)cs2)N(C)C(=O)[C@H](CC(C)C)NC(=O)[C@H](CC(C)C)N(C)C(=O)[C@H](CC(C)C)NC(=O)[C@@H](CCC#N)OC(=O)[C@H](C)N(C)C1=O` [C-68] (HELM PEPTIDE1{L.[meA].[N#CCC[C@@H](O[*:1])C(=O)[*:2]].L.[meL].L.[CN([C@@H](Cc1nc(C(C)(C)C)cs1)C(=O)[*:2])[*:1]]}$PEPTIDE1,PEPTIDE1,1:R1-7:R2$$$V2.0): in test [2], the concentration giving a half-maximal response (EC50) was determined as 11200 nM. In test [3], the IC50 is 1060 nM.
